The source of these data is the supplement of paper PMC4862054.

“And” between values parts separate entries of the source, which are not always exact repeats. Equal entries are not always repeated. Bounds are passed on as bounds.

Test [1] concerns DU-4475. Particulars: 72 h. In a few lines:
(§1)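 A 20 µl suspension of breast cancer cells was placed in 384-well plates that already contained compound at 5 concentrations in 10-fold steps across a compound-specific 10,000-fold range, and the plates were left for 72 h. CellTox Green fluorescence at 485/520 nm gave cell death, and CellTiter-Glo luminescence, read after 10 min at room temperature, gave viability. Each plate was normalised to 0.1 % DMSO and a positive kill control. EC50 was fitted from the curves and censored at the top concentration.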

In test [2] the test system is MFM-223. Particulars: 72 h. An outline of the steps:
as §1

In test [3] the test system is HDQ-P1. Conditions: 72 h. An outline of the steps:
as §1

Test [4] concerns HCC1599. Particulars: 72 h. An outline of the steps: as §1
The subject of test [5] is CAL-148. Particulars: 72 h. An outline of the steps:
as §1

Test [6] has as its system SK-BR-3. Particulars: 72 h. In a few lines: (§2)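 For viability, cells received 2.5 µl CellTiter-Blue for 2 h at 37 °C and fluorescence was read at 560/590 nm. Before this, breast cancer cell lines in 20 µl suspension had been incubated for 72 h on 384-well plates pre-loaded with compound dissolved in 5 µl medium. EC50 was obtained from a percent-inhibition dose-response fit censored at the highest concentration, after normalisation of each plate to vehicle and a positive kill control; rows with a zero drug sensitivity score were discarded.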

Test [7] deals with HCC1937. Particulars: 72 h. In a few lines:
as §2

The subject of test [8] is MFM-223. Particulars: 72 h. An outline of the steps: as §2
This is another data set of the same source.

Test [9] has as its system MDA-MB-468. Particulars: 72 h. In a few lines:
as §2

Test [10] relates to HCC1599. Particulars: 72 h. An outline of the steps: as §2
The source holds these as a separate data set.

Test [11] deals with Hs578T. Particulars: 72 h. In a few lines:
as §2

Test [12] has as its system BT-549. Particulars: 72 h. In a few lines: as §2
The test system of test [13] is MDA-MB-231. Conditions: 72 h. An outline of the steps:
as §2

Test [14] deals with BT-474. Particulars: 72 h. In a few lines:
as §2

The subject of test [15] is CAL-120. Conditions: 72 h. An outline of the steps:
as §2

Test [16] deals with HCC1143. Conditions: 72 h. An outline of the steps:
as §2

In test [17] the test system is CAL-85-1. Particulars: 72 h. The protocol:
(§3)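 Drug sensitivity and resistance testing (DSRT) of breast cancer cell lines in 384-well plates, 5 concentrations in 10-fold dilutions over a compound-specific 10,000-fold range. After 72 h, cytotoxicity was read by CellTox Green fluorescence and viability by CellTiter-Glo luminescence (multiplexed), normalised to DMSO and benzethonium chloride controls. EC50 is the inflection point of the fitted dose-response curve (bottom asymptote free, so it can be relative for partial curves) and is censored at the highest tested concentration. Rows with DSS 0 (no meaningful response) were excluded.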

In test [18] the test system is CAL-51. Conditions: 72 h. As to the method: as §3
Test [19] relates to DU-4475. Particulars: 72 h. In a few lines:
as §2
This is another data set of the same source.

Test [20] has as its system HDQ-P1. Particulars: 72 h. In a few lines:
as §2
The source holds these as a separate data set.

The test system of test [21] is CAL-85-1. Conditions: 72 h. In a few lines: as §2
This is another data set of the same source.

In test [22] the test system is CAL-51. Particulars: 72 h. In a few lines: as §2
The source holds these as a separate data set.

Test [23] has as its system CAL-148. Conditions: 72 h. In a few lines:
as §2
This is another data set of the same source.

Test [24] concerns SK-BR-3. Briefly: normalised viability (% of control), CellTiter-Blue; higher = more viable cells (about 100 = DMSO control). Particulars: incubation time: 72 h. An outline of the steps: (§4)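 Compound dissolved in 5 µl medium was pre-loaded into 384-well plates, and breast cancer cell lines in 20 µl suspension were seeded on top and incubated 72 h. After adding 2.5 µl CellTiter-Blue reagent for 2 h at 37 °C, fluorescence was read at 560/590 nm. Plates were normalised to vehicle (100) and a positive kill control (0), with Z'-factor quality control. Each value is normalised viability at a single listed concentration from the series.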

Test [25] deals with DU-4475. Described as above. Conditions: incubation time: 72 h. In a few lines:
as §4

The test system of test [26] is MFM-223. The description is as above. Conditions: incubation time: 72 h. An outline of the steps: as §4
For test [27], the system named is HDQ-P1. The description is as above. Conditions: incubation time: 72 h. An outline of the steps:
as §4

The test system of test [28] is BT-549. The description is as above. Particulars: incubation time: 72 h. In a few lines:
as §4

In test [29] the test system is MDA-MB-231. The description is as above. Particulars: incubation time: 72 h. An outline of the steps: as §4
In test [30] the test system is HCC1143. The test is described as above. Conditions: incubation time: 72 h. An outline of the steps:
as §4

The subject of test [31] is CAL-148. The description is as above. Particulars: incubation time: 72 h. In a few lines:
as §4

Test [32] deals with MDA-MB-453. Particulars: 72 h. As to the method: as §3
The subject of test [33] is MDA-MB-436. Particulars: 72 h. In a few lines: as §2
The subject of test [34] is Hs578T. Conditions: 72 h. The protocol: as §3
This is another data set of the same source.

Turning to `Cn1cncc1[C@@](N)(c1ccc(Cl)cc1)c1ccc2c(c1)c(-c1cccc(Cl)c1)cc(=O)n2C` [Tipifarnib], the “EC50, CellTiter-Glo” value in test [1] was 412 nM; in test [2], 5050 nM; in test [3] it was 106 nM; in [4], 8630 nM; in test [5], 380 nM. The “EC50, CellTiter-Blue viability” value in test [6] is 540 nM; in test [7], 101 nM; in test [8] it was 1010 nM; in test [9] it was 5590 nM; in test [10], 151 nM; in test [11] it was 4400 nM. Also, the “EC50, CellTiter-Blue viability” value was determined as 3730 nM in test [12]; 97.8 nM in test [13]; 1450 nM in test [14]; 55.5 nM in [15]; 7.7 nM in test [16]; 59.1 nM in test [19]. The “EC50, CellTiter-Blue viability” value in [20] amounted to 16.6 nM; in test [21], 33.1 nM; in test [22] it was 1500 nM; in test [23], 33 nM. Besides, the “EC50, CellTox Green” value in test [17] came out at 4740 nM; in test [18], 19.9 nM. The normalised viability was found to be 23.8% in [24] (10000 nM); 54.9% in test [25] (100 nM); 29.7% in test [26] (10000 nM); 70.7% in test [27] (100 nM); 30.1% in test [28] (10000 nM); 48.8% in test [29] (10000 nM). Also, the normalised viability in test [30] (10000 nM) is 59.7%; in [31] (100 nM), 45.6%.

For the compound `COc1ccccc1S(=O)(=O)Nc1ccc2c(c1)CN(C)C(=O)N2` [PFI-1], the entries for the “EC50, CellTiter-Glo” value in test [1] and in test [2] were 2670 nM and 3190 nM, respectively. The “EC50, CellTox Green” value in test [17] is 9560 nM.

As to `CC(C)(C#N)c1cc(Cn2cncn2)cc(C(C)(C)C#N)c1` [Anastrozole], the “EC50, CellTox Green” value in test [32] was above 10000 nM. Besides, the normalised viability is 102% in [24] (10000 nM); 98.7% in [25] (100 nM); 90.5% in test [26] (10000 nM); 91.8% in test [27] (100 nM); 85.1% in [28] (10000 nM); 106% in test [29] (10000 nM). Also, the normalised viability in test [30] (10000 nM) is 80.5%; in test [31] (100 nM), 98.1%.

Turning to `Cn1c(=O)n(-c2ccc(C(C)(C)C#N)cc2)c2c3cc(-c4cnc5ccccc5c4)ccc3ncc21` [NVP-BEZ235], the “EC50, CellTiter-Blue viability” value in test [6] worked out at 26.4 nM; in test [7], 6.87 nM; in test [8], 7.73 nM; in [9], 27.1 nM; in test [10], 20.8 nM; in test [11], 8.08 nM. The “EC50, CellTiter-Blue viability” value came out at 12.8 nM in [12]; 12.9 nM in test [13]; 52.5 nM in test [33]; 21.7 nM in [14]; 10.1 nM in [15]; 15.2 nM in test [16]. The “EC50, CellTiter-Blue viability” value was 54 nM in test [19]; 10.8 nM in test [20]; 12.6 nM in test [21]; 10.1 nM in [22]; 17.6 nM in test [23]. The normalised viability in test [24] (1000 nM) is 15.6%; in test [25] (10 nM), 107%; in [26] (1000 nM) it was 24.1%; in [27] (10 nM) it was 69%; in test [28] (1000 nM) it was 18.2%; in test [29] (1000 nM), 27.1%. Further, the values for the normalised viability in test [30] (1000 nM) and in [31] (10 nM) were 30.1% and 73.5%, respectively.

With `CNNCc1ccc(C(=O)NC(C)C)cc1` [Procarbazine], the normalised viability in [24] (10000 nM) was 106%; in test [25] (100 nM), 91.3%; in test [26] (10000 nM), 97.8%; in test [27] (100 nM) it was 109%; in [28] (10000 nM), 89.5%; in test [29] (10000 nM), 109%. The values for the normalised viability in test [30] (10000 nM) and in test [31] (100 nM) were 93.6% and 99%, respectively.

For `Cc1ccc(NC(=O)c2ccc(CN3CCN(C)CC3)cc2)cc1Nc1nccc(-c2cccnc2)n1` [Imatinib], the “EC50, CellTox Green” value in test [32] is 2820 nM; in [34], above 10000 nM. For the same compound, the normalised viability was 80.8% and 91.9% in test [24] (10000 nM); 89.4% and 111% in [25] (100 nM); 105% and 98% in [26] (10000 nM); 93% and 76.6% in test [28] (10000 nM); 107% and 104% in [29] (10000 nM); 86.7% and 88.8% in test [30] (10000 nM). The normalised viability in [31] (100 nM) is 85.4% and 91.8%.
